# Test results as given in US8293774B2, “Optically active (R)-aryloxypropionic acid amides and herbicidal composition comprising same” (Kyung Nong Corporation, priority 2007, dated 2012).
# Columns and labels:
# Experiment in all cases: Weed control test, foliage treatment (Test Example 1, Table 7)
# [1] = system: ORYSA (Oryza sativa cv. Dongjin, rice); conditions: in vivo
# Description: (§1) Seeds of rice, wheat, soy bean, barley, corn, common sorgum, barnyard grass, large crabgrass, creek grass, green foxtail and fall panicum were placed in sandy loam in 600 cm^2 pots and covered with soil. After keeping the pots in a greenhouse at 20 to 30° C. allowing growth of the plants to the 3-leaf stage of the barnyard grass, 2,000 l/ha of an emulsion obtained by diluting with water a mixture of 1 part by weight of a test compound, 5 parts by weight of acetone and 1 part by weight of an emulsifying agent (Tween 80, Junsei) was applied to the surface of the foliage of the plants. The plant damage at 10 days and 20 days after the foliage treatment was visually evaluated from the level of 1 to 100% by comparison with the untreated control: […]
# [2] = system: GLXMA (Glycine max(L.) MERR, soy bean); conditions: in vivo
# Description: as §1
# [3] = system: HORVU (Hordeum vulgare L., barley); conditions: in vivo
# Description: as §1
# [4] = system: TRZAW (Tritium aestivum L., wheat); conditions: in vivo
# Description: as §1
# [5] = system: ZEAMX (Zea mays L., corn); format: in vivo; conditions: Zea mays, foliar, read-out: Plant damage (herbicidal activity), visually evaluated, ZEAMX; for plant injury at 25 g/ha: 0.025 kg/ha; for plant injury at 100 g/ha: 0.1 kg/ha; for plant injury at 200 g/ha: 0.2 kg/ha
# Description: as §1
# [6] = system: ECHOG (Echinoch crus-galli Beauv. var. caudata Kitagawa, barnyard grass); format: in vivo; conditions: Echinochloa crus-galli, foliar, 3-leaf stage, read-out: Plant damage (herbicidal activity), visually evaluated, ECHOG; for pest or weed control at 25 g/ha: 0.025 kg/ha; for pest or weed control at 100 g/ha: 0.1 kg/ha; for pest or weed control at 200 g/ha: 0.2 kg/ha
# Description: as §1
# [7] = system: DIGSA (Digitaria Sanguinalis (L.) SCOP, large crabgrass); format: in vivo; conditions: Digitaria sanguinalis, foliar, read-out: Plant damage (herbicidal activity), visually evaluated, DIGSA; for pest or weed control at 25 g/ha: 0.025 kg/ha; for pest or weed control at 100 g/ha: 0.1 kg/ha; for pest or weed control at 200 g/ha: 0.2 kg/ha
# Description: as §1
# [8] = system: SORBI (Andropogon sorghum, common sorgum); format: in vivo; conditions: Sorghum bicolor, foliar, read-out: Plant damage (herbicidal activity), visually evaluated, SORBI; for pest or weed control at 25 g/ha: 0.025 kg/ha; for pest or weed control at 100 g/ha: 0.1 kg/ha; for pest or weed control at 200 g/ha: 0.2 kg/ha
# Description: as §1
# [9] = system: ARTHIS (Arthraxon hispidus (Thunb.) Makino, creek grass); format: in vivo; conditions: Arthraxon hispidus, foliar, read-out: Plant damage (herbicidal activity), visually evaluated, ARTHIS; for pest or weed control at 25 g/ha: 0.025 kg/ha; for pest or weed control at 100 g/ha: 0.1 kg/ha; for pest or weed control at 200 g/ha: 0.2 kg/ha
# Description: as §1
# [10] = system: SETVIR (Setaria viridis (L.) Beauv, green foxtail); format: in vivo; conditions: Setaria viridis, foliar, read-out: Plant damage (herbicidal activity), visually evaluated, SETVIR; for pest or weed control at 25 g/ha: 0.025 kg/ha; for pest or weed control at 100 g/ha: 0.1 kg/ha; for pest or weed control at 200 g/ha: 0.2 kg/ha
# Description: as §1
# [11] = system: PANDI (Panium dichotomiflorum Michx, fall panicum); format: in vivo; conditions: Panicum dichotomiflorum, foliar, read-out: Plant damage (herbicidal activity), visually evaluated, PANDI; for pest or weed control at 25 g/ha: 0.025 kg/ha; for pest or weed control at 100 g/ha: 0.1 kg/ha; for pest or weed control at 200 g/ha: 0.2 kg/ha
# Description: as §1
SMILES,"Plant damage (herbicidal activity), visually evaluated, ORYSA [1] [%]","Plant damage (herbicidal activity), visually evaluated, GLXMA [2] [%]","Plant damage (herbicidal activity), visually evaluated, HORVU [3] [%]","Plant damage (herbicidal activity), visually evaluated, TRZAW [4] [%]",plant injury at 25 g/ha [5] [%],plant injury at 100 g/ha [5] [%],plant injury at 200 g/ha [5] [%],pest or weed control at 25 g/ha [6] [%],pest or weed control at 100 g/ha [6] [%],pest or weed control at 200 g/ha [6] [%],pest or weed control at 25 g/ha [7] [%],pest or weed control at 100 g/ha [7] [%],pest or weed control at 200 g/ha [7] [%],pest or weed control at 25 g/ha [8] [%],pest or weed control at 100 g/ha [8] [%],pest or weed control at 200 g/ha [8] [%],pest or weed control at 25 g/ha [9] [%],pest or weed control at 100 g/ha [9] [%],pest or weed control at 200 g/ha [9] [%],pest or weed control at 25 g/ha [10] [%],further results
"C[C@@H](Oc1ccc(Oc2ccc(C#N)cc2F)cc1)C(=O)Nc1cnccn1 [Example 35, (R)-2-[4-(4-cyano-2-fluorophenoxy)phenoxy]propionic acid-N-(2-pyrazinyl)amide]",0,0,0,0,0,20,30,0,10,30,10,40,60,20,65,80,0,10,30,0,pest or weed control at 100 g/ha [10]: 30%; pest or weed control at 200 g/ha [10]: 50%; pest or weed control at 25 g/ha [11]: 0%; pest or weed control at 100 g/ha [11]: 0%; pest or weed control at 200 g/ha [11]: 30%
"C[C@@H](Oc1ccc(OC(F)=Cc2ccccc2)cc1)C(=O)N(C)c1ccccc1F [Example 37, (R)-2-[4-(1-fluoro-2-phenylvinyloxy)phenoxy]propionic acid-N-(2-fluorophenyl)-N-methyl amide]",0,0,0,0,0,0,30,20,70,90,0,20,90,0,20,20,0,0,10,0,pest or weed control at 100 g/ha [10]: 0%; pest or weed control at 200 g/ha [10]: 20%; pest or weed control at 25 g/ha [11]: 0%; pest or weed control at 100 g/ha [11]: 0%; pest or weed control at 200 g/ha [11]: 10%
"C[C@@H](Oc1ccc(C(F)=C(c2ccc(F)cc2)C(F)(F)F)cc1)C(=O)Nc1ccccc1F [Example 40, (R)-2-[4-(1,3,3,3-tetrafluoro-2-(4-fluorophenyl)prop-1-enyl)phenoxy]propionic acid-N-(2-fluorophenyl)amide]",0,0,0,0,90,100,100,20,70,90,70,90,90,0,20,50,0,0,10,0,pest or weed control at 100 g/ha [10]: 0%; pest or weed control at 200 g/ha [10]: 20%; pest or weed control at 25 g/ha [11]: 0%; pest or weed control at 100 g/ha [11]: 0%; pest or weed control at 200 g/ha [11]: 10%
"Cc1ccc(C=C(F)Oc2ccc(O[C@H](C)C(=O)Nc3ccccc3F)cc2)cc1 [Example 41, (R)-2-[4-(1-fluoro-2-(4-methylphenyl)vinyloxy)phenoxy]propionic acid-N-(2-fluorophenyl)amide]",0,0,0,0,0,0,20,0,0,20,0,0,50,0,0,0,0,0,20,0,pest or weed control at 100 g/ha [10]: 20%; pest or weed control at 200 g/ha [10]: 70%; pest or weed control at 25 g/ha [11]: 20%; pest or weed control at 100 g/ha [11]: 70%; pest or weed control at 200 g/ha [11]: 70%
